Measured values published in US6376666B1 (Nauchno-Issledovatelsky Institut Farmakologii Rossiiskoi …, priority 1994, dated 2002).

Tests used:
cats = test: hemodynamics and activity of intact heart in cats under anesthesia; type: in vivo; settings: cats i.v., doses of 0,5 mg/kg-2,0 mg/kg
Procedure: The effects of compounds on the hemodynamics and activity of intact heart were studied in cats under anesthesia. The experiments were carried out under conditions of open chest. The phase curve of aortic blood flow was the main index of cardiac activity. The compounds were administered i.v. in physiological solution. The t-Student' test was used to estimate the statistical significance.

C57B1/6 mice = test: open-field test, C57B1/6 mice (active type of emotional-stress reaction); type: in vivo; set-up: key to Total activity: sum of all locomotor activity counts (crossings + rearings) in 3 min; settings: for Central activity (crossings) / Number of defecations / Peripheral activity (crossings) / Total activity / Vertical activity (rearings): M ± mx
In short: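 Male mice, 20-22 g, dosed i.p. in water 30 min before a 3-min open-field test after 1 min in darkness; peripheral, central, rearing and total activity plus defecations recorded; Student t-test. Anxiolysis read as Balb/c activation, sedation as C57B1/6 inhibition.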

Question: Which results are given for CCOc1ccc2nc(SCCN3CCOCC3)[nH]c2c1 [XII, 2-[2-(Morpholino)ethylthio]-5-ethoxybenzimidazole]?
Answer: effect on heart rate, in words (cats): small and short bradycardia; Central activity (crossings) (C57B1/6 mice; 0.1 mg/kg i.p.): 18.3 ± 1.9; Number of defecations (C57B1/6 mice; 0.1 mg/kg i.p.): 1.3 ± 0.3; Peripheral activity (crossings) (C57B1/6 mice; 0.1 mg/kg i.p.): 92.9 ± 5.4; Total activity (C57B1/6 mice; 0.1 mg/kg i.p.): 123.6 ± 8.4; Vertical activity (rearings) (C57B1/6 mice; 0.1 mg/kg i.p.): 12.5 ± 1.1; Central activity (crossings) (C57B1/6 mice; 1.0 mg/kg i.p.): 20.4 ± 2.3; Number of defecations (C57B1/6 mice; 1.0 mg/kg i.p.): 0.5 ± 0.5; Peripheral activity (crossings) (C57B1/6 mice; 1.0 mg/kg i.p.): 86.6 ± 4.3; Total activity (C57B1/6 mice; 1.0 mg/kg i.p.): 123.5 ± 8.4; Vertical activity (rearings) (C57B1/6 mice; 1.0 mg/kg i.p.): 16.5 ± 1.8; Central activity (crossings) (C57B1/6 mice; 10.0 mg/kg i.p.): 36.0 ± 4.9; Number of defecations (C57B1/6 mice; 10.0 mg/kg i.p.): 0.6 ± 0.6; Peripheral activity (crossings) (C57B1/6 mice; 10.0 mg/kg i.p.): 86.6 ± 10.9; Total activity (C57B1/6 mice; 10.0 mg/kg i.p.): 140.2 ± 19.0; Vertical activity (rearings) (C57B1/6 mice; 10.0 mg/kg i.p.): 17.6 ± 3.2; Central activity (crossings) (C57B1/6 mice; 20.0 mg/kg i.p.): 23.4 ± 4.9; Number of defecations (C57B1/6 mice; 20.0 mg/kg i.p.): 1.8 ± 0.6; Peripheral activity (crossings) (C57B1/6 mice; 20.0 mg/kg i.p.): 86.4 ± 4.0; Total activity (C57B1/6 mice; 20.0 mg/kg i.p.): 127.2 ± 11.6; Vertical activity (rearings) (C57B1/6 mice; 20.0 mg/kg i.p.): 17.4 ± 2.7; Central activity (crossings) (C57B1/6 mice; 30.0 mg/kg i.p.): 26.3 ± 10.2; Number of defecations (C57B1/6 mice; 30.0 mg/kg i.p.): 0.1 ± 0.1; Peripheral activity (crossings) (C57B1/6 mice; 30.0 mg/kg i.p.): 53.0 ± 5.7; Total activity (C57B1/6 mice; 30.0 mg/kg i.p.): 87.9 ± 17.5; Vertical activity (rearings) (C57B1/6 mice; 30.0 mg/kg i.p.): 8.3 ± 4.6; Central activity (crossings) (C57B1/6 mice; 50.0 mg/kg i.p.): 13.9 ± 5.3; Number of defecations (C57B1/6 mice; 50.0 mg/kg i.p.): 0.5 ± 0.3; Peripheral activity (crossings) (C57B1/6 mice; 50.0 mg/kg i.p.): 67.1 ± 11.9; Total activity (C57B1/6 mice; 50.0 mg/kg i.p.): 90.1 ± 19.8; Vertical activity (rearings) (C57B1/6 mice; 50.0 mg/kg i.p.): 9.1 ± 2.6; effect on locomotor activity of C57B1/6 mice in open-field test, in words (C57B1/6 mice; i.p., doses that activate Balb/c mice): without any changes in locomotor activity
